Test results as given in the NIST ThermoML archive (doi:10.1021/acs.jced.7b00520).

Legend:
[1] = 101.3 kPa, Liquid, Capillary tube (Ostwald / Ubbelohde) method
[2] = mn = molality of the nth substance listed, in mol/kg; details: 101.3 kPa, Liquid; for viscosity: Capillary tube (Ostwald / Ubbelohde) method; for mass density: Vibrating tube method

O [water]
[1]
Details | viscosity [mPa·s]
288.15 K | 1.138
298.15 K | 0.89
308.15 K | 0.719
318.15 K | 0.596

[Cl-].[Cl-].[Mg+2] [magnesium chloride] + O
[2]
Details | mass density, m1 = 0.09999 [kg/m3] | mass density, m1 = 0.25 [kg/m3] | mass density, m1 = 0.5 [kg/m3] | mass density, m1 = 0.7499 [kg/m3] | mass density, m1 = 0.9999 [kg/m3] | viscosity, m1 = 0.0999 [mPa·s] | viscosity, m1 = 0.25 [mPa·s] | viscosity, m1 = 0.5 [mPa·s] | viscosity, m1 = 0.7499 [mPa·s] | viscosity, m1 = 0.9999 [mPa·s]
288.15 K | 1006.87 | 1017.79 | 1034.95 | 1050.84 | 1065.46 | 1.21 | 1.25 | 1.355 | 1.445 | 1.534
298.15 K | 1004.61 | 1015.32 | 1032.22 | 1048.21 | 1062.64 | 0.934 | 0.981 | 1.072 | 1.147 | 1.214
308.15 K | 1001.62 | 1012.53 | 1029.55 | 1045.26 | 1059.4 | 0.751 | 0.794 | 0.862 | 0.934 | 1.01
318.15 K | 997.848 | 1008.92 | 1026.01 | 1041.4 | 1055.25 | 0.624 | 0.659 | 0.715 | 0.762 | 0.814
